Where a name gives a salt, the structure may show the parent alone. Read-outs that look alike come from different tables or passages of the source.
How the values were obtained:
[1] = molecular target: T1, neuronal nicotinic acetylcholine receptors (Rattus norvegicus, UniProt P09483+P12390); experiment: [3H]-cytisine binding to neuronal nicotinic acetylcholine receptors, crude synaptic membranes from whole rat brain
T1 construct: crude synaptic membrane preparations from whole rat brain; from tissue; host or cells: whole rat brain, crude synaptic membranes
T1 sequence (P09483 31-630): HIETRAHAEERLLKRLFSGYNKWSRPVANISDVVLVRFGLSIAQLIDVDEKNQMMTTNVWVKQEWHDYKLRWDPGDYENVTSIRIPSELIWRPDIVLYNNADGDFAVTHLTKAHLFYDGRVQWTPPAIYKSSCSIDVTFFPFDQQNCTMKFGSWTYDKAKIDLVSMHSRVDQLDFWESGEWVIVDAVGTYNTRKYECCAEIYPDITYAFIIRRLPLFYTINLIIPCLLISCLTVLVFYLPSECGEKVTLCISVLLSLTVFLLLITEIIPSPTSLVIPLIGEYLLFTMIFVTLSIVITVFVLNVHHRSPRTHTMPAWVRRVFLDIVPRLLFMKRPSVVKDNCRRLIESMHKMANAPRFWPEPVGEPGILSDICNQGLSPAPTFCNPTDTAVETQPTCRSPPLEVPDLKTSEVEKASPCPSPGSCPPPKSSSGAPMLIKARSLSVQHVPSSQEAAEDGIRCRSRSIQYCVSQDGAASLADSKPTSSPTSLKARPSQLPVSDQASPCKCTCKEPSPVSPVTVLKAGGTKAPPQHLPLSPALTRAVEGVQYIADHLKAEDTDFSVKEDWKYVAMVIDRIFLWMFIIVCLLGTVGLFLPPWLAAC
T1 sequence (P12390 25-500): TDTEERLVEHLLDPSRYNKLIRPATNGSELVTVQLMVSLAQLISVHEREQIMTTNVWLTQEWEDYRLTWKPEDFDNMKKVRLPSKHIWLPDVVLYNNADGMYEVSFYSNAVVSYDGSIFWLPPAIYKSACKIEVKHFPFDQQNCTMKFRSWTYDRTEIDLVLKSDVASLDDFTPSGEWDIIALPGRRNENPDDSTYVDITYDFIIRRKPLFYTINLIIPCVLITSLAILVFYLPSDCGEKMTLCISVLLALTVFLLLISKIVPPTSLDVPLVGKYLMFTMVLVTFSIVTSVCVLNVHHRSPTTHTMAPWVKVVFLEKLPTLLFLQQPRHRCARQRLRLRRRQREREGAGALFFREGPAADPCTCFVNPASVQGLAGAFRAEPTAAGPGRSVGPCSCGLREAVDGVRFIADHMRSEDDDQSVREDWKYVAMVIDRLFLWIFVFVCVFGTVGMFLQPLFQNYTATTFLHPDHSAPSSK
Procedure: The In Vitro protocols for determination of nicotinic acetylcholine channel receptor binding potencies of ligands were determined as follows.
Washed membranes were stored at-80 °C prior to use. Frozen aliquots were slowly thawed and resuspended in 20 volumes of buffer (containing: 120 mM NaCl, 5 mM KCI, 2 mM MgCl2, 2 mM CaCl2 and 50 mM Tris-Cl, pH 7.4 @4 °C). After centrifuging at 20,000x g for 15 minutes, the pellets were resuspended in 30 volumes of buffer.
The test compounds were dissolved in water to make 10 mM stock solutions. Each solution was then diluted (1:100) with buffer (as above) and further taken through seven serial log dilutions to produce test solutions from 10^-5 to 10^-11 M.
Samples were incubated for 60 minutes at 4 °C, then rapidly filtered through Whatman GF/B filters presoaked in 0.5% polyethyleneimine using 3 x 4 mL of ice-cold buffer. The filters are counted in 4 mL of Ecolume® (ICN). Nonspecific binding was determined in the presence of 10 µM (-)-nicotine and values were expressed as a percentage of total binding. IC50 values were determined with the RS-1 (BBN) nonlinear least squares curve-fitting program and IC50 values were converted to Ki values using the Cheng and Prusoff correction (Ki=IC50/(1+[ligand]/Kd of ligand).

mice = experiment: Mouse hot plate paradigm (analgesic effect, latency until tenth jump); assay type: in vivo; conditions: ip, 0.5 h, minimally effective dose among doses tested, intraperitoneal, dosed 30 minutes prior to testing, hot plate 55 °C, cut-off 180 seconds, increase in tenth jump latency relative to control, read-out: (MED)
Procedure: An in vivo protocol was utilized to determine the effectiveness of nicotinic acetylcholine receptor ligands as analgesic agents in the mouse hot plate paradigm.
Separate groups of mice, (n=8/group) were utilized for each dose group. All drugs were administered by the intraperitoneal route of administration. Test drugs were dissolved in water to make a 6.2 mM stock solution. Animals were dosed with this solution (10 mL/kg body weight) for a 62 micromol/kg dose. Lower doses were administered similarly, following serial dilution of the stock solution in half-log increments. Animals were dosed 30 minutes prior to testing in the hot plate. The hotplate utilized was an automated analgesia monitor (Model #AHP16AN, Omnitech Electronics, Inc. of Columbus, Ohio). The temperature of the hot plate was maintained at 55 °C and a cut-off time of 180 seconds was utilized. Latency until the tenth jump was recorded as the dependent measure. An increase in the tenth jump latency relative to the control was considered an effect.

[2] = [3H]-CYT 1.25 nM, 60 minutes at 4 °C, whole rat brain membranes, Ki from IC50 by Cheng and Prusoff correction, read-out: Average Ki

| SMILES | Ki [1] | minimal effective dose (mice) | Ki [1, 2] |
| --- | --- | --- | --- |
| c1cnnc(N2C[C@H]3C[C@@H]2CN3)c1 [Example 25, (1R,4R)-2-(3-pyridazinyl)-2,5-diazabicyclo[2,2,1]heptane 4-methylbenzenesulfonate] | 0.4 nM | 19 µmol/kg | – |
| N#CCN1C[C@H]2C[C@@H]1CN2c1ccc(Cl)nc1 [Example 27, (1R,4R)-2-(6-chloro-3-pyridinyl)-5-cyanomethyl-2,5-diazabicyclo[2.2.1]heptane 4-methylbenzenesulfonate] | 0.05 nM | 1.9 µmol/kg | – |
| Fc1ccc(N2C[C@@H]3C[C@H]2CN3)cn1 [Example 30, (1S,4S)-2-(6-fluoro-3-pyridinyl)-2,5-diazabicyclo[2.2.1]heptane bis(4-methylbenzenesulfonate)] | 0.17 nM | 1.9 µmol/kg | – |
| Brc1cncc(N2C[C@@H]3C[C@H]2CN3)c1 [Example 31, (1S,4S)-2-(5-bromo-3-pyridinyl)-2,5-diazabicyclo[2.2.1]heptane 4-methylbenzenesulfonate] | 1.2 nM | 62 µmol/kg | – |
| Fc1ccc(N2C[C@H]3C[C@@H]2CN3)cn1 [Example 33, (1R,4R)-2-(6-fluoro-3-pyridinyl)-2,5-diazabicyclo[2.2.1]heptane 4-methylbenzenesulfonate] | 0.03 nM | 0.19 µmol/kg | – |
| Clc1ccc(N2CCC3CC2CN3)cn1 (stereo not drawn) [Example 35, 2-(6-chloro-3-pyridinyl)-2,6-diazabicyclo[3.2.1]octane trihydrochloride] | – | 19 µmol/kg | 1.5 nM |
| Clc1ccc(N2CCC3CCC(C2)N3)cn1 (stereo not drawn) [Example 36, 3-(6-chloro-3-pyridinyl)-3,9-diazabicyclo[4.2.1]nonane hydrochloride] | 0.06 nM | 1.9 µmol/kg | – |
| CN1C2CCC1CN(c1cccnc1)CC2 (stereo not drawn) [Example 37, 9-methyl-3-(3-pyridinyl)-3,9-diazabicyclo[4.2.1]nonane 4-methylbenzenesulfonate] | 0.55 nM | 6.2 µmol/kg | – |
| NC(=O)c1cncc(N2C[C@@H]3C[C@H]2CN3)c1 [Example 38, (1S,4S)-2-(5-aminocarbonyl-3-pyridinyl)-2,5-diazabicyclo[2.2.1]heptane bis(4-methylbenzenesulfonate)] | 24 nM | 19 µmol/kg | – |
| Oc1cncc(N2C[C@H]3C[C@@H]2CN3)c1 [Example 39, (1R,4R)-2-(5-hydroxy-3-pyridinyl)-2,5-diazabicyclo[2.2.1]heptane 4-methylbenzenesulfonate] | 0.04 nM | 62 µmol/kg | – |
| Oc1cc(N2C[C@H]3C[C@@H]2CN3)cnc1Cl [Example 40, (1R,4R)-2-(6-chloro-5-hydroxy-3-pyridinyl)-2,5-diazabicyclo[2.2.1]heptane 4-methylbenzenesulfonate] | 0.17 nM | 19 µmol/kg | – |
| c1cncc(N2CCC3CCC(C2)N3)c1 (stereo not drawn) [Example 41, 3-(3-pyridinyl)-3,9-diazabicyclo[4.2,1]nonane bis(4-methylbenzenesulfonate)] | 0.03 nM | 6.2 µmol/kg | – |
| N#Cc1cncc(N2C[C@H]3C[C@@H]2CN3)c1 [Example 44, (1R,4R)-2-(5-cyano-3-pyridinyl)-2,5-diazabicyclo[2,2,1]heptane 4-methylbenzenesulfonate] | 0.03 nM | 0.62 µmol/kg | – |
| COc1ccc(N2C[C@H]3C[C@@H]2CN3)cn1 [Example 46, (1R,4R)-2-(6-methoxy-3-pyridinyl)-2,5-diazabicyclo[2.2.1]heptane 4-methylbenzenesulfonate] | 0.25 nM | 6.2 µmol/kg | – |
| Cc1cc(N2C[C@H]3C[C@@H]2CN3)cnc1Cl [Example 47, (1R,4R)-2-(6-chloro-5-methyl-3-pyridinyl)-2,5-diazabicyclo[2.2.1]heptane 4-methylbenzenesulfonate] | 0.009 nM | 6.2 µmol/kg | – |
| Clc1cc(N2C[C@H]3C[C@@H]2CN3)cnc1Cl [Example 48, (1R,4R)-2-(5,6-dichloro-3-pyridinyl)-2,5-diazabicyclo[2.2.1]heptane 4-methylbenzenesulfonate] | 0.01 nM | 6.2 µmol/kg | – |
| c1cncc(N2CC3CNCC(C3)C2)c1 [Example 57, 3-(3-pyridinyl)-3,7-diazabicyclo[3.3.1]nonane bis(4-methylbenzenesulfonate)] | – | 1.9 µmol/kg | 0.02 nM |
| Clc1ccc(N2CC3CNCC(C3)C2)cn1 [Example 58, 3-(6-Chloro-3-pyridinyl)-3,7-diazabicyclo[3.3.1]nonane 4-methylbenzenesulfonate] | 0.02 nM | 0.62 µmol/kg | – |
